# According to patent US12486302B2, “Somatostatin receptor antagonist compounds and methods of using the same” (CDRD VENTURES INC., priority 2016, dated 2025):
# *1 amine or outer side, *2 acyl side, *3 side chain or, on linkers, in order; H or OH if unused. Where a SMILES comes first, the peptide text is derived from it. Bridges are numbered along the chain shown (N, C = ends). Side-chain parts run from the residue outwards. [ ]: non-standard residue; d: D form. The star is where a group is joined. ξ: configuration not given here. dPhe(4-CONH2) = NC(=O)c1ccc(C[C@@H](N)C(=O)O)cc1; dPhe(4-NH2) = Nc1ccc(C[C@@H](N)C(=O)O)cc1; Phe(4-Cl) = N[C@@H](Cc1ccc(Cl)cc1)C(=O)O; ξPhe(4-Cl) = NC(Cc1ccc(Cl)cc1)C(=O)O; Butanoyl(3,3-Me2) = CC(C)(C)CC(=O)*; NMeY = CN[C@@H](Cc1ccc(O)cc1)C(=O)O; dNMeY = CN[C@H](Cc1ccc(O)cc1)C(=O)O; Lys(Me2) = CN(C)CCCC[C@H](N)C(=O)O; NH(4-MeO-phenyl) = COc1ccc(N*)cc1; NMeT = CN[C@H](C(=O)O)[C@@H](C)O; Lys(Me) = CNCCCC[C@H](N)C(=O)O; X4 = O=C(CS(=O)(=O)c1ccccc1)*; Succinamoyl = NC(=O)CCC(=O)*; Nicotinoyl = O=C(c1cccnc1)*; Picolinoyl = O=C(c1ccccn1)*; ξY = NC(Cc1ccc(O)cc1)C(=O)O; dDap = NC[C@@H](N)C(=O)O; Hexanoyl = CCCCCC(=O)*; CO = O=C([*:1])[*:2]
# Target: somatostatin type 2 (SSTR2) receptors (Homo sapiens, UniProt P30874)
# Assay: PathHunter β-Arrestin assay, antagonist mode, SSTR2
# Type: cell-based
# Conditions: agonist challenge at EC80
# Description: The PathHunter® β-Arrestin assay monitors the activation of a GPCR in a homogenous, non-imaging assay format using a technology developed by DiscoveRx called Enzyme Fragment Complementation (EFC) with β-galactosidase (β-Gal) as the functional reporter. […] EA is fused to β-Arrestin and […] is fused to the GPCR of interest. When the GPCR is activated and β-Arrestin is recruited to the receptor, ED and EA complementation occurs, restoring β-Gal activity which is measured using chemiluminescent PathHunter® Detection Reagents. For antagonist determination, cells were pre-incubated with the compounds followed by agonist challenge at the EC80 concentration. Data was normalized to the maximal and minimal response observed in the presence of EC80 ligand and vehicle. Compound activity was analyzed using CBIS data analysis suite ChemInnovation, CA). Percentage inhibition was calculated using the following formula: % Inhibition=100%×(1−(mean signal of test sample-mean signal of vehicle control)/(mean signal of EC80 control-mean signal of vehicle control)). Percentage inhibition was calculated at 10 concentrations in steps on a Log 3 scale ranging from […] to 5e-5 μM. The results were plotted for IC50 calculation.
# Chain of somatostatin type 2 (SSTR2) receptors (P30874 whole entry): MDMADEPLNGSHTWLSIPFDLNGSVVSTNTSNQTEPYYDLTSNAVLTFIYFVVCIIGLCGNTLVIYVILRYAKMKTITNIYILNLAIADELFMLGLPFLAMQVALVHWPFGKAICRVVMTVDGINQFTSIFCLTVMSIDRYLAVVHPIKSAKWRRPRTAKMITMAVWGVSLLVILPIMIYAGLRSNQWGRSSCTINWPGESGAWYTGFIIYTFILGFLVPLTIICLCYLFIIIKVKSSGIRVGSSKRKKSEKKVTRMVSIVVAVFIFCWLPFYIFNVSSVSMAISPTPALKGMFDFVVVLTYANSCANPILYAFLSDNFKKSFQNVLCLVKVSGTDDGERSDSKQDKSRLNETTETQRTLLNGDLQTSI
row,SMILES,IC50 [nM]
1,"CNCCCC[C@@H]1NC(=O)[C@@H](Cc2ccc(C(N)=O)cc2)NC(=O)[C@H](Cc2ccc(O)cc2)NC(=O)[C@H](NC(=O)[C@H](Cc2ccc(Cl)cc2)NC(=O)c2ccccn2)CSSC[C@@H](C(=O)N[C@H](Cc2ccc(O)cc2)C(N)=O)NC(=O)[C@H]([C@@H](C)O)NC1=O [Compound 53, 2-Pyridyl(CO)-Cpa-cyclo[D-Cys-Tyr-D-Phe(4-carbamoyl)-Lys(N^ε-Me)-Thr-Cys]-D-Tyr-NH2] (Picolinoyl-[Phe(4-Cl)][dC]Y[dPhe(4-CONH2)][Lys(Me)]TC[dY]-NH2; disulfide 2-7)",4.28
2,"CC(O)[C@@H]1NC(=O)[C@H](CCCCN)NC(=O)[C@@H](Cc2ccc(C(N)=O)cc2)NC(=O)[C@H](Cc2ccc(O)cc2)NC(=O)[C@H](NC(=O)[C@@H](N)Cc2ccc(Cl)cc2)CNC(=O)SC[C@@H](C(=O)N[C@H](Cc2ccc(O)cc2)C(N)=O)NC1=O (stereo partly drawn) [Compound 60, H-Cpa-cyclo [DDap-Tyr- DPhe(4-CONH2)- Lys-Thr-Cys]- DTyr-NH2]",> 1000
3,"CNCCCC[C@@H]1NC(=O)[C@@H](Cc2ccc(C(N)=O)cc2)NC(=O)[C@H](Cc2ccc(O)cc2)NC(=O)[C@H](NC(=O)[C@H](Cc2ccc(Cl)cc2)NC(=O)CS(=O)(=O)c2ccccc2)CSSC[C@@H](C(=O)N[C@H](Cc2ccc(O)cc2)C(N)=O)NC(=O)[C@H]([C@@H](C)O)NC1=O [Compound 51, PhSO2CH2(CO)-Cpa-cyclo[D-Cys-Tyr-D-Phe(4-carbamoyl)-Lys(N^ε-Me)-Thr-Cys]-D-Tyr-NH2] (X4-[Phe(4-Cl)][dC]Y[dPhe(4-CONH2)][Lys(Me)]TC[dY]-NH2; disulfide 2-7)",1.45
4,"C[C@@H](O)[C@H]1C(=O)N[C@H](C(=O)N[C@H](Cc2ccc(O)cc2)C(N)=O)CSSC[C@@H](NC(=O)[C@@H](N)Cc2ccc(Cl)cc2)C(=O)N(C)[C@@H](Cc2ccc(O)cc2)C(=O)N[C@H](Cc2ccc(C(N)=O)cc2)C(=O)N[C@@H](CCCCN)C(=O)N1C [Compound 75, H-Cpa-[DCys-NMeTyr-DPhe(4-carbamoyl)-Lys-NMeThr-Cys]-DTyr-NH2] (H-[Phe(4-Cl)][dC][NMeY][dPhe(4-CONH2)]K[NMeT]C[dY]-NH2; disulfide 2-7)",> 1000
5,"COc1ccc(CC(NC(=O)[C@@H]2CSSC[C@@H](NC(=O)[C@@H](N)Cc3ccc(Cl)cc3)C(=O)N[C@@H](Cc3ccc(O)cc3)C(=O)N[C@H](Cc3ccc(C(N)=O)cc3)C(=O)N[C@@H](CCCCN)C(=O)N[C@@H]([C@@H](C)O)C(=O)N2)C(N)=O)cc1 (stereo partly drawn) [Compound 44, H-Cpa-cyclo[DCys- Tyr-D-(4- carbamoyl)Phe-Lys- Thr-Cys]-4-OMe-D- Phe-NH2] (H-[Phe(4-Cl)][dC]Y[dPhe(4-CONH2)]KTC[ξY](Me)-NH2; disulfide 2-7)",10.7
6,"C[C@@H](O)[C@@H]1NC(=O)[C@H](CCCCN)NC(=O)[C@@H](Cc2ccc(C(N)=O)cc2)NC(=O)[C@H](Cc2ccc(O)cc2)NC(=O)[C@H](NC(=O)[C@@H](N)Cc2ccc(Cl)cc2)CSSC[C@@H](C(=O)N(C)[C@H](Cc2ccc(O)cc2)C(N)=O)NC1=O [Compound 79, H-Cpa-[DCys- Tyr-DPhe(4- carbamoyl)-Lys- Thr-Cys]- NMeDTyr-NH2] (H-[Phe(4-Cl)][dC]Y[dPhe(4-CONH2)]KTC[dNMeY]-NH2; disulfide 2-7)",28.7
7,"COc1ccc(NC(=O)Nc2ccc(C[C@H]3NC(=O)[C@H](Cc4ccc(O)cc4)NC(=O)[C@H](NC(=O)[C@@H](N)Cc4ccc(Cl)cc4)CSSC[C@@H](C(=O)N[C@H](Cc4ccc(O)cc4)C(N)=O)NC(=O)[C@H]([C@@H](C)O)NC(=O)[C@H](CCCCN)NC3=O)cc2)cc1 [Compound 28, H-Cpa-cyclo[DCys- Tyr-D-(4-(4- methoxyphenyl) ureido) Phe-Lys-Thr-Cys]- DTyr-NH2] (H-[Phe(4-Cl)][dC]Y[dPhe(4-NH2)]([CO-NH(4-MeO-phenyl)])KTC[dY]-NH2; disulfide 2-7)",104
8,"CNCCCC[C@@H]1NC(=O)[C@@H](Cc2ccc(C(N)=O)cc2)NC(=O)[C@H](Cc2ccc(O)cc2)NC(=O)[C@H](NC(=O)[C@@H](N)Cc2ccc(Cl)cc2)CSSC[C@@H](C(=O)NC(Cc2ccc(Cl)cc2)C(N)=O)NC(=O)[C@H]([C@@H](C)O)NC1=O (stereo partly drawn) [Compound 46, H-Cpa-cyclo[D-Cys-Tyr-D-Phe(4-carbamoyl)-Lys(N^ε-Me)-Thr-Cys]-D-Cpa-NH2] (H-[Phe(4-Cl)][dC]Y[dPhe(4-CONH2)][Lys(Me)]TC[ξPhe(4-Cl)]-NH2; disulfide 2-7)",0.398
9,"CCCCCC(=O)N[C@@H](Cc1ccc(Cl)cc1)C(=O)N[C@@H]1CSSC[C@@H](C(=O)N[C@H](Cc2ccc(O)cc2)C(N)=O)NC(=O)[C@H]([C@@H](C)O)NC(=O)[C@H](CCCCNC)NC(=O)[C@@H](Cc2ccc(C(N)=O)cc2)NC(=O)[C@H](Cc2ccc(O)cc2)NC1=O [Compound 56, CH3(CH2)4(CO)-Cpa-cyclo[D-Cys-Tyr-D-Phe(4-carbamoyl)-Lys(N^ε-Me)-Thr-Cys]-D-Tyr-NH2] (Hexanoyl-[Phe(4-Cl)][dC]Y[dPhe(4-CONH2)][Lys(Me)]TC[dY]-NH2; disulfide 2-7)",1.6

# Now from value to compound:
row,IC50 [nM],SMILES
1,2.46,"C[C@@H](O)[C@@H]1NC(=O)[C@H](CCCCN(C)C)NC(=O)[C@@H](Cc2ccc(C(N)=O)cc2)NC(=O)[C@H](Cc2ccc(O)cc2)NC(=O)[C@H](NC(=O)[C@@H](N)Cc2ccc(Cl)cc2)CSSC[C@@H](C(=O)NC(Cc2ccc(O)cc2)C(N)=O)NC1=O (stereo partly drawn) [Compound 32, H-Cpa-cyclo[D-Cys-Tyr-D-Phe(4-carbamoyl)-Lys(N^ε-diMe)-Thr-Cys]-D-Tyr-NH2] (H-[Phe(4-Cl)][dC]Y[dPhe(4-CONH2)][Lys(Me2)]TC[ξY]-NH2; disulfide 2-7)"
2,13.3,"CNCCCC[C@@H]1NC(=O)[C@@H](Cc2ccc(C(N)=O)cc2)NC(=O)[C@H](Cc2ccc(O)cc2)NC(=O)[C@H](NC(=O)[C@@H](N)Cc2ccc(Cl)cc2)CNC(=O)C[C@@H](C(=O)N[C@H](Cc2ccc(O)cc2)C(N)=O)NC(=O)[C@H]([C@@H](C)O)NC1=O [Compound 71, H-Cpa-cyclo [DDap-Tyr- DPhe(4-CONH2)- Lys(Me)-Thr- Asp]-DTyr-NH2] (H-[Phe(4-Cl)][dDap]Y[dPhe(4-CONH2)][Lys(Me)]TD[dY]-NH2; lactam 2-7)"
3,177,"CNCCCC[C@@H]1NC(=O)[C@@H](CCCCNC(=O)c2cccnc2)NC(=O)[C@H](Cc2ccc(O)cc2)NC(=O)[C@H](NC(=O)[C@@H](N)Cc2ccc(Cl)cc2)CSSC[C@@H](C(=O)NC(Cc2ccc(O)cc2)C(N)=O)NC(=O)[C@H]([C@@H](C)O)NC1=O (stereo partly drawn) [Compound 30, H-Cpa-cyclo[D-Cys-Tyr-D-Lys(N^ε-nicotinoyl)-Lys(N^ε-Me)-Thr-Cys]-D-Tyr-NH2] (H-[Phe(4-Cl)][dC]Y[dK](Nicotinoyl)[Lys(Me)]TC[ξY]-NH2; disulfide 2-7)"
4,> 1000,C[C@@H](O)[C@@H]1NC(=O)[C@H](CCCCN)NC(=O)[C@@H](Cc2ccc(C(N)=O)cc2)NC(=O)[C@H](Cc2ccc(O)cc2)NC(=O)[C@H](NC(=O)[C@@H](N)Cc2ccc(Cl)cc2)CC=CC[C@@H](C(=O)N[C@H](Cc2ccc(O)cc2)C(N)=O)NC1=O [Compound 67]
5,1.73,"CNCCCC[C@@H]1NC(=O)[C@@H](Cc2ccc(C(N)=O)cc2)NC(=O)[C@H](Cc2ccc(O)cc2)NC(=O)[C@H](NC(=O)[C@H](Cc2ccc(Cl)cc2)NC(=O)CC(C)(C)C)CSSC[C@@H](C(=O)N[C@H](Cc2ccc(O)cc2)C(N)=O)NC(=O)[C@H]([C@@H](C)O)NC1=O [Compound 52, t-BuCH2(CO)-Cpa-cyclo[D-Cys-Tyr-D-Phe(4-carbamoyl)-Lys(N^ε-Me)-Thr-Cys]-D-Tyr-NH2] ({Butanoyl(3,3-Me2)}-[Phe(4-Cl)][dC]Y[dPhe(4-CONH2)][Lys(Me)]TC[dY]-NH2; disulfide 2-7)"
6,159,"C[C@@H](O)[C@@H]1NC(=O)[C@H](CCCCN)NC(=O)[C@@H](Cc2ccc(C(N)=O)cc2)NC(=O)[C@H](Cc2ccc(O)cc2)N(C)C(=O)[C@H](NC(=O)[C@@H](N)Cc2ccc(Cl)cc2)CSSC[C@@H](C(=O)N[C@H](Cc2ccc(O)cc2)C(N)=O)NC1=O [Compound 74, H-Cpa-[DCys- NMeTyr-DPhe (4-carbamoyl)- Lys-Thr-Cys]- DTyr-NH2] (H-[Phe(4-Cl)][dC][NMeY][dPhe(4-CONH2)]KTC[dY]-NH2; disulfide 2-7)"
7,2.33,"CNCCCC[C@@H]1NC(=O)[C@@H](Cc2ccc(C(N)=O)cc2)NC(=O)[C@H](Cc2ccc(O)cc2)NC(=O)[C@H](NC(=O)[C@H](Cc2ccc(Cl)cc2)NC(=O)CCC(N)=O)CSSC[C@@H](C(=O)N[C@H](Cc2ccc(O)cc2)C(N)=O)NC(=O)[C@H]([C@@H](C)O)NC1=O [Compound 54, H2N(CO)(CH2)2(CO)-Cpa-cyclo[D-Cys-Tyr-D-Phe(4-carbamoyl)-Lys(N^ε-Me)-Thr-Cys]-D-Tyr-NH2] (Succinamoyl-[Phe(4-Cl)][dC]Y[dPhe(4-CONH2)][Lys(Me)]TC[dY]-NH2; disulfide 2-7)"
8,24.4,"COc1ccc(C[C@@H]2NC(=O)[C@H](NC(=O)[C@@H](N)Cc3ccc(Cl)cc3)CSSC[C@@H](C(=O)NC(Cc3ccc(O)cc3)C(N)=O)NC(=O)[C@H]([C@@H](C)O)NC(=O)[C@H](CCCCN)NC(=O)[C@@H](Cc3ccc(C(N)=O)cc3)NC2=O)cc1 (stereo partly drawn) [Compound 38, H-Cpa-cyclo[DCys- 4-OMe-Phe-D-(4- carbamoyl)Phe-Lys- Thr-Cys]-DTyr-NH2] (H-[Phe(4-Cl)][dC]Y(Me)[dPhe(4-CONH2)]KTC[ξY]-NH2; disulfide 2-7)"
9,> 1000,"C[C@@H](O)[C@@H]1NC(=O)[C@H](CCCCN)NC(=O)[C@@H](Cc2ccc(C(N)=O)cc2)NC(=O)[C@H](Cc2ccc(O)cc2)NC(=O)[C@H](NC(=O)[C@@H](N)Cc2ccc(Cl)cc2)CNC(=O)C[C@@H](C(=O)N[C@H](Cc2ccc(O)cc2)C(N)=O)NC1=O [Compound 69, H-Cpa-cyclo [DDap-Tyr- DPhe(4-CONH2)- Lys-Thr-Asp]- DTyr-NH2] (H-[Phe(4-Cl)][dDap]Y[dPhe(4-CONH2)]KTD[dY]-NH2; lactam 2-7)"
